Measurements as given in patent US10323026B2, “Heterocyclic compound” (Takeda Pharmaceutical Company Limited, priority 2016, dated 2019).

Molecular target: T1, His-hMAGL (recombinant polyhistidine tagged human MAGL protein) (Homo sapiens, UniProt Q99685)
T1 construct: polyhistidine (His) (N); made in house; host or cells: E. coli BL21(DE3)
T1 sequence (Q99685 1-303): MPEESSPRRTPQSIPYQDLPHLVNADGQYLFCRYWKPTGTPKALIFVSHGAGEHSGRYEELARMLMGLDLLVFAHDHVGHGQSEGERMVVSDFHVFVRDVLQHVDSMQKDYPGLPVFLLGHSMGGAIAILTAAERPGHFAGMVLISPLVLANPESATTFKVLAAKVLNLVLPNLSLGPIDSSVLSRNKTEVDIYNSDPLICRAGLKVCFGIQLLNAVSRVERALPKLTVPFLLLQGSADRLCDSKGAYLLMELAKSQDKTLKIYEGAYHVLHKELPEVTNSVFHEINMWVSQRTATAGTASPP
Assay: Measurement of MAGL inhibitory activity (RapidFire-mass spectrometry of arachidonic acid produced from 2-arachidonylglycerol)
Assay type: biochemical
Details: test compound 10 μM, His-hMAGL, substrate 2-arachidonylglycerol, 60 min preincubation; for inhibition at 10 µM: read-out: % inhibition (10 μM)
Protocol: Furthermore, acetonitrile (50 μL) containing 3 μM arachidonic acid-d8 (Cayman Chemical Company) was added and the mixture was stirred.
The amount of arachidonic acid in the obtained enzyme reaction mixture was calculated by measuring by RapidFire-mass spectrometry and correcting by the amount of arachidonic acid-d8. High Throughput online solid phase extraction was performed using RapidFire 300™ system (Agilent Technologies, Inc.). Samples were loaded on SPE C4 cartridge (Agilent Technologies, Inc.) and desalted with 0.2 (v/v) % acetic acid (Wako Pure Chemical Industries, Ltd.) in ultrapure water/acetonitrile (70/30, v/v) at a flow rate of 1.5 mL/min, eluted at a flow rate of 0.5 mL/min with 0.2(v/v) % acetic acid dissolved in acetonitrile/ultrapure water (90/10, v/v), and injected into the mass spectrometry part. The injection needle was washed with ultrapure water (500 millisecond) and acetonitrile (500 millisecond) to minimize carry-over. […] The RapidFire300 system was controlled by RapidFire UI software version 3.6 (Agilent Technologies, Inc.).
The mass spectrometry of the resultant product was performed using API4000™ triple quadrupole mass spectrometer (AB SCIEX) equipped with an electrospray ion source (TurboIon Spray™) in a negative selected reaction monitoring (SRM) mode. The conditions of SRM are shown below. The parameters of the instrument were optimized as follows: capillary temperature 600° C., ion spray voltage −4.5 kV, collision gas 8, curtain gas 15 psi, ion source gas 1 60 psi, ion source gas 2 60 psi. The mass spectrometer was controlled by Analyst™ software version 1.5.1 (AB SCIEX). The peak area integration was analyzed using RapidFire integrator software version 3.6 (Agilent Technologies, Inc.).
MAGL inhibitory rate (%) was calculated according to the following calculation formula. (1-(arachidonic acid production amount of test compound addition group−arachidonic acid production amount of enzyme-free group)÷(arachidonic acid production amount of test compound-free group−arachidonic acid production amount of enzyme-free group))×100

SMILES | % inhibition (10 μM) | inhibition at 10 µM
O=C1N[C@]2(CO1)C[C@H](C(=O)N1CCC(OCc3ccc(Cl)cc3Cl)CC1)C2 [Example 24, (2s,4s)-2-((4-((2,4-dichlorobenzyl)oxy)piperidin-1-yl)carbonyl)-7-oxa-5-azaspiro[3.4]octan-6-one] | – | 100%
CC1(C2CCN(C(=O)[C@H]3C[C@]4(COC(=O)N4)C3)CC2)Cc2cc(F)cc(Cl)c2O1 (stereo partly shown) [Example 27, (2s,4s)-2-((4-(7-chloro-5-fluoro-2-methyl-2,3-dihydro-1-benzofuran-2-yl)piperidin-1-yl)carbonyl)-7-oxa-5-azaspiro[3.4]octan-6-one] | – | 101%
Cc1ccc(OC(C)C2CCN(C(=O)[C@H]3C[C@]4(COC(=O)N4)C3)CC2)c(F)c1 (stereo partly shown) [Example 28, (2s,4s)-2-((4-(1-(2-fluoro-4-methylphenoxy)ethyl)piperidin-1-yl)carbonyl)-7-oxa-5-azaspiro[3.4]octan-6-one] | – | 100%
CC(Oc1ccc(Cl)cc1F)C1CCN(C(=O)[C@H]2C[C@]3(COC(=O)N3)C2)CC1 (stereo partly shown) [Example 31, (2s,4s)-2-((4-(1-(4-chloro-2-fluorophenoxy)ethyl)piperidin-1-yl)carbonyl)-7-oxa-5-azaspiro[3.4]octan-6-one] | 101% | –
CC(Oc1ccc(Cl)cc1F)C1CCN(C(=O)[C@H]2C[C@]3(COC(=O)N3)C2)CC1 (stereo partly shown) [Example 32, (2s,4s)-2-((4-(1-(4-chloro-2-fluorophenoxy)ethyl)piperidin-1-yl)carbonyl)-7-oxa-5-azaspiro[3.4]octan-6-one] | 100% | –
Cc1cc(F)ccc1OC(C)C1CCN(C(=O)[C@H]2C[C@]3(COC(=O)N3)C2)CC1 (stereo partly shown) [Example 33, (2s,4s)-2-((4-(1-(4-fluoro-2-methylphenoxy)ethyl)piperidin-1-yl)carbonyl)-7-oxa-5-azaspiro[3.4]octan-6-one] | 101% | –
Cc1cc(F)ccc1OC(C)C1CCN(C(=O)[C@H]2C[C@]3(COC(=O)N3)C2)CC1 (stereo partly shown) [Example 34, (2s,4s)-2-((4-(1-(4-fluoro-2-methylphenoxy)ethyl)piperidin-1-yl)carbonyl)-7-oxa-5-azaspiro[3.4]octan-6-one] | 101% | –

The remaining lines, values ahead:

% inhibition (10 μM) | inhibition at 10 µM | SMILES
100% | – | CC(Oc1ccc(F)cc1F)C1CCN(C(=O)[C@H]2C[C@]3(COC(=O)N3)C2)CC1 (stereo partly shown) [Example 21, (2s,4s)-2-((4-(1-(2,4-difluorophenoxy)ethyl)piperidin-1-yl)carbonyl)-7-oxa-5-azaspiro[3.4]octan-6-one]
101% | – | CC(Oc1ccc(F)cc1F)C1CCN(C(=O)[C@H]2C[C@]3(COC(=O)N3)C2)CC1 (stereo partly shown) [Example 22, (2s,4s)-2-((4-(1-(2,4-difluorophenoxy)ethyl)piperidin-1-yl)carbonyl)-7-oxa-5-azaspiro[3.4]octan-6-one]
– | 100% | Cc1ccc(OCC2CCN(C(=O)[C@H]3C[C@]4(COC(=O)N4)C3)CC2)c(F)c1 [Example 23, (2s,4s)-2-((4-((2-fluoro-4-methylphenoxy)methyl)piperidin-1-yl)carbonyl)-7-oxa-5-azaspiro[3.4]octan-6-one]
– | 100% | O=C1COC[C@]2(C[C@H](C(=O)N3CCC(COc4ccc(F)cc4Cl)CC3)C2)N1 [Example 25, (2s,4s)-2-((4-((2-chloro-4-fluorophenoxy)methyl)piperidin-1-yl)carbonyl)-8-oxa-5-azaspiro[3.5]nonan-6-one]
– | 101% | O=C1N[C@]2(CO1)C[C@H](C(=O)N1CCC(COc3ccc(C(F)(F)F)cc3F)CC1)C2 [Example 26, (2s,4s)-2-((4-((2-fluoro-4-(trifluoromethyl)phenoxy)methyl)piperidin-1-yl)carbonyl)-7-oxa-5-azaspiro[3.4]octan-6-one]
– | 101% | CC(Oc1ccc(C(F)(F)F)cc1F)C1CCN(C(=O)[C@H]2C[C@]3(COC(=O)N3)C2)CC1 (stereo partly shown) [Example 35, (2s,4s)-2-((4-(1-(2-fluoro-4-(trifluororoethyl)phenoxy)ethyl)piperidin-1-yl)carbonyl)-7-oxa-5-azaspiro[3.4]octan-6-one]
